The values that follow are results of earlier work, collected in patent publication US20130315934A1, “Methods and Compositions for Assessing and Treating Cancer” (Yale University, priority 2010, published 2013).

Data set [1] concerns YULOVY melanoma cells possessing the S522I variant. Conditions: cell culture, YULOVY melanoma cells (ACK1 S522I variant).
The next data set concerns the target purified ACK1 (Homo sapiens, UniProt Q07912). Conditions: in vitro, purified enzyme.
Data set [2] concerns YUHEF melanoma cells harboring ACK1-S212L. Conditions: cell culture.
Another data set addresses PAK-4 (Homo sapiens, UniProt O96013). Conditions: PAK family members.

Sequence of purified ACK1 (Q07912 whole entry): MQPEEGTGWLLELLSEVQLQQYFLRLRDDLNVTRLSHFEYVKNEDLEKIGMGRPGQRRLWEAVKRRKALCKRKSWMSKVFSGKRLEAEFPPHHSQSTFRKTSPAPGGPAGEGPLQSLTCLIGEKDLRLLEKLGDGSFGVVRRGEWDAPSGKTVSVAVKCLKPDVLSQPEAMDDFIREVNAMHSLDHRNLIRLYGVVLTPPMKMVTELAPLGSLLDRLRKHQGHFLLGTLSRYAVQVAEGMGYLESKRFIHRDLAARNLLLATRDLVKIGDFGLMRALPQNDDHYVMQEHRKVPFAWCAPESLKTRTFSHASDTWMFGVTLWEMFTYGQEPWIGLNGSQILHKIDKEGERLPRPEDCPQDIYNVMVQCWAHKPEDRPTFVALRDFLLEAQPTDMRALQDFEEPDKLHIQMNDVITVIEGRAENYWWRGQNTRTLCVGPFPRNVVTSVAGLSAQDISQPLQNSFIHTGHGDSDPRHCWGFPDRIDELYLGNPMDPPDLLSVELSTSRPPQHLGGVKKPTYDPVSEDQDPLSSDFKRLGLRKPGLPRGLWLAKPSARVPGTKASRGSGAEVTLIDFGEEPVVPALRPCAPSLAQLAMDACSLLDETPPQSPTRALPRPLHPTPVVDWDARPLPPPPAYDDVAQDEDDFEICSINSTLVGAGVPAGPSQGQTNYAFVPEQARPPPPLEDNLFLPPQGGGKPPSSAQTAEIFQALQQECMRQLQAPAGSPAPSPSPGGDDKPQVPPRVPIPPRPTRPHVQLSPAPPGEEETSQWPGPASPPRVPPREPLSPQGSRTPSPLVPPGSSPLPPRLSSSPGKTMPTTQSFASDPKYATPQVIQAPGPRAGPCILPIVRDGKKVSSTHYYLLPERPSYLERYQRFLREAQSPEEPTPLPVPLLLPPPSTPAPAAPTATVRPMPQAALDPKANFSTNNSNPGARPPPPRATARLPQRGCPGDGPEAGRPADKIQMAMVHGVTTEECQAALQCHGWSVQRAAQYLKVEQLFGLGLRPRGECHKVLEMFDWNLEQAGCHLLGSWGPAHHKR
Sequence of PAK-4 (O96013 whole entry): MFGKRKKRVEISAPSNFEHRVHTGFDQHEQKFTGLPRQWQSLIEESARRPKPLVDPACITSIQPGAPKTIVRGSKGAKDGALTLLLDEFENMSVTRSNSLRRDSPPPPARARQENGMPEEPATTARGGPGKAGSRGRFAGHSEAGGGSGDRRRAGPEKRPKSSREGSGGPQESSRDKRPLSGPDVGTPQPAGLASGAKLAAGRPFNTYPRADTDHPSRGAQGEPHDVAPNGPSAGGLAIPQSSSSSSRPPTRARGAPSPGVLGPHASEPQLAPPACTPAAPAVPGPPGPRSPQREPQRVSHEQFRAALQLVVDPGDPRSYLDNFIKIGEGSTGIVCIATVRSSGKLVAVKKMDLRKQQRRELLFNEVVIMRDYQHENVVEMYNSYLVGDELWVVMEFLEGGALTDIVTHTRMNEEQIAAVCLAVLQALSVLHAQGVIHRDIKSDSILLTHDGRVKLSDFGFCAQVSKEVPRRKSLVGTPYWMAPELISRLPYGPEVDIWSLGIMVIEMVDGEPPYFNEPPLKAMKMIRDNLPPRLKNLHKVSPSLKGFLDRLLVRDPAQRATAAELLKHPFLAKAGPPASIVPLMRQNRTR

Regarding `CCCS(=O)(=O)Nc1ccc(F)c(C(=O)c2c[nH]c3ncc(-c4ccc(Cl)cc4)cc23)c1F` [PLX4032], the inhibition of proliferation result in data set [1] and in data set [2] was “did not inhibit the proliferation” in each case. The “inhibition of purified ACK1” value at purified ACK1 is reported as “highly effective in vitro inhibitor”.

`Cc1nc(Nc2[nH]nc3c2CN(C(=O)N[C@H](CN(C)C)c2ccccc2)C3(C)C)c2sccc2n1` [PF-3758309]: the “PAK family selectivity of inhibition” value on PAK-4 was “inhibit only PAK-4”.
